Results on 12 compounds are retold here after PubChem BioAssay (NCI).

Values joined by “and” are separate entries in the source; they are usually repeats but may differ in a detail not shown here. Equal entries are not always repeated.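 How tested: cells in 96-well plates exposed to compound for 48 hours at five concentrations. GI50 is the concentration that inhibits growth by half. TGI: concentration producing complete growth inhibition.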 Some results are limits rather than exact numbers.

Test systems include COLO 205 colon; HOP-62 NSCLC; HT29 colon; KM12 colon; M14 melanoma; NCI-H226 lung; NCI-H522 lung; OVCAR-4 ovarian; TK-10 renal; SK-MEL-2 melanoma.
Assay in all cases: NCI tumour cell line growth inhibition, 48 h

In the case of `Clc1ccc(Nc2ncnc3ccccc23)cc1`, the GI50 in the assay with COLO 205 colon was 68.9 µM; in the assay on HOP-62 NSCLC, more than 100 µM; with HT29 colon, 55.3 µM; with KM12 colon, 47.7 µM; in the assay with M14 melanoma, 54.9 µM; with NCI-H226 lung, 57.2 µM. In addition, the GI50 in the assay with NCI-H522 lung is 15.5 µM; with OVCAR-4 ovarian, more than 100 µM; in the assay with TK-10 renal, 2.79 µM. Further, the TGI in the assay with COLO 205 colon, in the assay on HOP-62 NSCLC, with HT29 colon, in the assay on KM12 colon, with M14 melanoma and in the assay on NCI-H226 lung was more than 100 µM each time. In addition, the figures for the TGI in the assay with NCI-H522 lung, with OVCAR-4 ovarian and in the assay on TK-10 renal were 55.8 µM, more than 100 µM and 31 µM, respectively.

Consider `COc1ccc(C(=O)O[C@@H]2CCN3CC[C@H](C)[C@H]23)cc1`, for which the TGI in the assay on COLO 205 colon, with HOP-62 NSCLC, in the assay with HT29 colon, in the assay on KM12 colon, in the assay with M14 melanoma and in the assay with NCI-H226 lung was more than 100 µM each time. For the same compound, the TGI with NCI-H522 lung, with SK-MEL-2 melanoma and in the assay on TK-10 renal was more than 100 µM each time.

As for `C=CCC1=C2CCCCC2CCC1=O` (configuration not stated), the TGI with COLO 205 colon, in the assay with HOP-62 NSCLC, in the assay on KM12 colon, with M14 melanoma, with NCI-H522 lung and in the assay on OVCAR-4 ovarian was more than 100 µM each time. For the same compound, the TGI with SK-MEL-2 melanoma and in the assay on TK-10 renal was more than 100 µM each time.

For `CC[C@H]1[C@@H](C)C=C[C@@H](C)N1S(=O)(=O)c1ccc(C)cc1`, the TGI with COLO 205 colon, with HOP-62 NSCLC, with HT29 colon, with KM12 colon, in the assay on M14 melanoma and with NCI-H226 lung was more than 100 µM each time. The TGI is more than 100 µM in the assay with NCI-H522 lung, more than 100 µM in the assay on OVCAR-4 ovarian and 52.9 µM with SK-MEL-2 melanoma.

Turning to `ClCCN(CCCl)c1ccc(OCc2ccccc2)cc1`, the GI50 in the assay with COLO 205 colon is 12.1 µM; in the assay with HOP-62 NSCLC it was 4.05 µM; in the assay on HT29 colon, 13.4 µM; in the assay with KM12 colon, 14.2 µM; in the assay with M14 melanoma, 4.16 µM; with NCI-H226 lung it was 10.3 µM. Besides, the GI50 in the assay with NCI-H522 lung is 4.64 µM; in the assay on OVCAR-4 ovarian it was 12 µM; with SK-MEL-2 melanoma, 13.3 µM. The TGI came to 32.4 µM in the assay with COLO 205 colon; 30.4 µM in the assay with HOP-62 NSCLC; 49.8 µM with HT29 colon; 36.7 µM with KM12 colon; 42.2 µM in the assay with M14 melanoma; 28 µM with NCI-H226 lung. The TGI in the assay on NCI-H522 lung is 21.9 µM; with OVCAR-4 ovarian it was 55.4 µM; in the assay with SK-MEL-2 melanoma, 35.4 µM.

With `Nc1cc2c(c3ccccc13)C(CCl)CN2C(=O)c1cc2cc(NC(=O)c3cc4ccccc4o3)ccc2[nH]1` (configuration not stated), the TGI is less than 0.11 µM in the assay on HOP-62 NSCLC; 0.0235 µM and < 0.11 µM in the assay on KM12 colon; 0.00332 µM and < 0.11 µM in the assay with NCI-H522 lung; 0.0109 µM and < 0.11 µM in the assay on SK-MEL-2 melanoma. The GI50 with KM12 colon, with NCI-H522 lung and with SK-MEL-2 melanoma was more than 0.11 µM in each case.

`CO[C@@H]1[C@H](N(C)C(=O)c2ccccc2)C[C@@H]2O[C@]1(C)n1c3ccccc3c3c4c(c5c6ccccc6n2c5c31)C(=O)NC4=O`: the GI50 with COLO 205 colon was 0.398 µM; with HOP-62 NSCLC, 0.382 µM; with HT29 colon it was 0.745 µM; with KM12 colon it was 0.391 µM; in the assay with M14 melanoma it was 0.68 µM; with NCI-H226 lung, 0.303 µM. Also, the GI50 in the assay on OVCAR-4 ovarian is 0.7 µM. Also, the TGI in the assay on COLO 205 colon, with HOP-62 NSCLC, with HT29 colon, with KM12 colon, in the assay on M14 melanoma and in the assay with NCI-H226 lung was more than 100 µM throughout. For the same compound, in the assay with OVCAR-4 ovarian, the TGI is more than 100 µM.

In the case of `O=C(O)COc1ccc2c3c1C(=O)CCC3CO2` (configuration not stated), the TGI with COLO 205 colon, in the assay with HOP-62 NSCLC, in the assay with HT29 colon, with KM12 colon, in the assay on M14 melanoma and in the assay with NCI-H522 lung was more than 100 µM each time. Besides, the TGI in the assay with OVCAR-4 ovarian, with SK-MEL-2 melanoma and with TK-10 renal was more than 100 µM each time.

With `COc1ccc(-c2nc(Nc3ccc(F)cc3)nc(Nc3ccc4c(c3)nc(C)n4Cc3ccccc3)n2)cc1`, the GI50 with COLO 205 colon was 2.28 µM; in the assay on HOP-62 NSCLC, 8.47 µM; with HT29 colon it was 1.76 µM; with KM12 colon, 3.55 µM; in the assay on M14 melanoma, 3.72 µM; with NCI-H226 lung it was 5.34 µM. Moreover, the results for the GI50 in the assay on NCI-H522 lung, with OVCAR-4 ovarian and in the assay with SK-MEL-2 melanoma were 5.92 µM, 1.59 µM and 3.47 µM, respectively. The TGI is 5.95 µM with COLO 205 colon; more than 100 µM in the assay on HOP-62 NSCLC; 3.56 µM with HT29 colon; 33.8 µM with KM12 colon; more than 100 µM in the assay on M14 melanoma; more than 100 µM with NCI-H226 lung. The TGI in the assay on NCI-H522 lung was more than 100 µM; in the assay on OVCAR-4 ovarian, more than 100 µM; in the assay with SK-MEL-2 melanoma, 11.9 µM.

For the compound `CN1C(=O)CNS1(=O)=O`, the TGI with HOP-62 NSCLC, with HT29 colon, with KM12 colon, with M14 melanoma, with NCI-H226 lung and in the assay with SK-MEL-2 melanoma was more than 100 µM throughout. The compound further displayed a TGI in the assay on TK-10 renal of more than 100 µM.

Regarding `CN1C[C@@H]2CC(=O)CC[C@@H]2C[C@H]1C#N`, the TGI with HOP-62 NSCLC, with HT29 colon, with KM12 colon, in the assay on M14 melanoma, in the assay with NCI-H226 lung and with NCI-H522 lung was more than 100 µM in each case. For the same compound, the TGI in the assay with OVCAR-4 ovarian and in the assay on SK-MEL-2 melanoma was more than 100 µM throughout.

Regarding `Cc1cn2c(/C=N/NC3=NCCN3)c(-c3ccc(Cl)c([N+](=O)[O-])c3)nc2s1`, the GI50 in the assay on COLO 205 colon is 1.43 µM; in the assay on HOP-62 NSCLC it was 1.71 µM; in the assay on KM12 colon, 0.872 µM; with M14 melanoma, 1.06 µM; in the assay with SK-MEL-2 melanoma it was 0.645 µM; in the assay on TK-10 renal, 1.05 µM. The TGI with COLO 205 colon is more than 50 µM; in the assay on HOP-62 NSCLC, 7.17 µM; in the assay with KM12 colon, 1.9 µM; with M14 melanoma, 2.17 µM; in the assay with SK-MEL-2 melanoma, 1.81 µM; in the assay with TK-10 renal it was 2.7 µM.
